Source: PubChem BioAssay (NCI)
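Following 48 hours of exposure in 96-well plates, responses at five concentrations were used to interpolate endpoints linearly. Abbreviation: GI50, concentration required for 50% inhibition of growth. TGI marks complete inhibition of growth.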

Assays:
Assay in all cases: DTP human tumour cell line panel, 48 h
[1] = tested on: SF-539 CNS
[2] = tested on: SF-295 CNS
[3] = tested on: HS 578T breast
[4] = tested on: MCF7 breast
[5] = tested on: U251 CNS
[6] = tested on: CCRF-CEM leukemia
[7] = tested on: A498 renal
[8] = tested on: LOX IMVI melanoma
[9] = tested on: NCI-H23 lung
[10] = tested on: SF-268 CNS
[11] = tested on: DU-145 prostate
[12] = tested on: NCI/ADR-RES ovarian
[13] = tested on: MALME-3M melanoma
[14] = tested on: UACC-257 melanoma
[15] = tested on: HL-60(TB) leukemia
[16] = tested on: BT-549 breast
[17] = tested on: HCT-15 colon
[18] = tested on: ACHN renal
[19] = tested on: RPMI-8226 leukemia
[20] = tested on: SR leukemia
[21] = tested on: HCT-116 colon
[22] = tested on: MOLT-4 leukemia
[23] = tested on: OVCAR-5 ovarian
[24] = tested on: T-47D breast
[25] = tested on: SK-MEL-28 melanoma
[26] = tested on: TK-10 renal
[27] = tested on: UACC-62 melanoma
[28] = tested on: EKVX NSCLC
[29] = tested on: NCI-H460 lung
[30] = tested on: OVCAR-8 ovarian
[31] = tested on: SK-MEL-2 melanoma
[32] = tested on: NCI-H522 lung
[33] = tested on: CAKI-1 renal
[34] = tested on: 786-0 renal
[35] = tested on: OVCAR-4 ovarian
[36] = tested on: UO-31 renal
[37] = tested on: SNB-75 CNS
[38] = tested on: IGROV1 ovarian
[39] = tested on: A549 NSCLC
[40] = tested on: NCI-H226 lung
[41] = tested on: PC-3 prostate
[42] = tested on: K-562 leukemia
[43] = tested on: OVCAR-3 ovarian
[44] = tested on: SNB-19 CNS
[45] = tested on: COLO 205 colon
[46] = tested on: KM12 colon
[47] = tested on: HCC-2998 colon
[48] = tested on: SN12C renal
[49] = tested on: HT29 colon
[50] = tested on: HOP-62 NSCLC
[51] = tested on: SK-MEL-5 melanoma
[52] = tested on: MDA-MB-231 breast
[53] = tested on: SK-OV-3 ovarian
[54] = tested on: SW-620 colon
[55] = tested on: HOP-92 NSCLC
[56] = tested on: RXF 393 renal
[57] = tested on: MDA-MB-435
[58] = tested on: M14 melanoma

COc1ccc(/C=C(/C(=O)N2CCCC2)c2cc(OC)c(OC)c(OC)c2)cc1N
GI50 [1]: 1900 nM | TGI [1]: 6.75 µM | GI50 [2]: 1110 nM | TGI [2]: > 100 µM | GI50 [3]: 2410 nM | TGI [3]: > 100 µM | GI50 [4]: 921 nM | TGI [4]: > 100 µM | GI50 [5]: 4.18 µM | TGI [5]: > 100 µM | GI50 [6]: 3.19 µM | TGI [6]: > 100 µM | GI50 [7]: 1.26 µM | TGI [7]: > 100 µM | GI50 [8]: 3770 nM | TGI [8]: > 100 µM | GI50 [9]: 4.61 µM | TGI [9]: > 100 µM | GI50 [10]: 5.44 µM | TGI [10]: > 100 µM | GI50 [11]: 2650 nM | TGI [11]: > 100 µM | GI50 [12]: 4.21 µM | TGI [12]: 63.9 µM | GI50 [13]: 4250 nM | TGI [13]: > 100 µM | GI50 [14]: > 100 µM | TGI [14]: > 100 µM | GI50 [15]: 2070 nM | TGI [15]: 7.65 µM | GI50 [16]: 6.52 µM | TGI [16]: 57.8 µM | GI50 [17]: 2280 nM | TGI [17]: > 100 µM | GI50 [18]: 5.73 µM | TGI [18]: > 100 µM | GI50 [19]: 4.05 µM | TGI [19]: > 100 µM | GI50 [20]: 719 nM | TGI [20]: > 100 µM | GI50 [21]: 1080 nM | TGI [21]: > 100000 nM | GI50 [22]: 4740 nM | TGI [22]: > 100 µM | GI50 [23]: 7.63 µM | TGI [23]: > 100 µM | GI50 [24]: 3.91 µM | TGI [24]: > 100 µM | GI50 [25]: 5.68 µM | TGI [25]: > 100 µM | GI50 [26]: 11.1 µM | TGI [26]: > 100 µM | GI50 [27]: 1.03 µM | TGI [27]: > 100 µM | GI50 [28]: 4.63 µM | TGI [28]: > 100 µM | GI50 [29]: 2.96 µM | TGI [29]: > 100 µM | GI50 [30]: 8.92 µM | TGI [30]: > 100 µM | GI50 [31]: 4.72 µM | TGI [31]: > 100 µM | GI50 [32]: 2340 nM | TGI [32]: > 100 µM | GI50 [33]: 2350 nM | TGI [33]: > 100000 nM | GI50 [34]: 2700 nM | TGI [34]: > 100 µM | GI50 [35]: 28.2 µM | TGI [35]: > 100 µM | GI50 [36]: 6.87 µM | TGI [36]: > 100 µM | GI50 [37]: 2180 nM | TGI [37]: > 100 µM | GI50 [38]: 3.93 µM | TGI [38]: > 100 µM | GI50 [39]: 4.14 µM | TGI [39]: > 100 µM | GI50 [40]: 4.44 µM | TGI [40]: > 100 µM | GI50 [41]: 2100 nM | TGI [41]: > 100 µM | GI50 [42]: 926 nM | TGI [42]: > 100 µM | GI50 [43]: 992 nM | TGI [43]: 6.34 µM | GI50 [44]: 2.87 µM | TGI [44]: > 100 µM | GI50 [45]: 3.06 µM | TGI [45]: 11 µM | GI50 [46]: 1550 nM | TGI [46]: > 100 µM | GI50 [47]: 6.76 µM | TGI [47]: > 100 µM | GI50 [48]: 4.86 µM | TGI [48]: > 100 µM | GI50 [49]: 2300 nM | TGI [49]: > 100 µM | GI50 [50]: 4.07 µM | TGI [50]: > 100 µM | GI50 [51]: 2.51 µM | TGI [51]: > 100 µM | GI50 [52]: 5.75 µM | TGI [52]: > 100 µM | GI50 [53]: 2.78 µM | TGI [53]: > 100 µM | GI50 [54]: 2480 nM | TGI [54]: > 100 µM | GI50 [55]: 9.92 µM | TGI [55]: > 100 µM

N#C/C(=C/C=C(\Cl)c1ccc(Cl)cc1)C(N)=O
GI50 [1]: 3190 nM | TGI [1]: 9.27 µM | GI50 [2]: 1650 nM | TGI [2]: 3.45 µM | GI50 [3]: 3070 nM | TGI [3]: 9.91 µM | GI50 [4]: 4910 nM | TGI [4]: > 100 µM | GI50 [5]: 2.29 µM | TGI [5]: 5.32 µM | GI50 [6]: 2.81 µM | TGI [6]: > 100 µM | GI50 [7]: 13.2 µM | TGI [7]: 27.7 µM | GI50 [8]: 976 nM | TGI [8]: 6.91 µM | GI50 [9]: 2.4 µM | TGI [9]: 8.83 µM | GI50 [10]: 3.46 µM | TGI [10]: 13.6 µM | GI50 [11]: 3310 nM | TGI [11]: 12.5 µM | GI50 [12]: 2.67 µM | TGI [12]: 7.43 µM | GI50 [13]: 1480 nM | TGI [13]: 3.55 µM | GI50 [14]: 6.17 µM | TGI [14]: 11.4 µM | GI50 [16]: 7 µM | TGI [16]: 13.9 µM | GI50 [17]: 2790 nM | TGI [17]: > 32.5 µM | GI50 [18]: 2.37 µM | TGI [18]: 6.39 µM | GI50 [56]: 3.75 µM | TGI [56]: > 57.6 µM | GI50 [19]: 2.14 µM | TGI [19]: > 100 µM | GI50 [20]: 2260 nM | TGI [20]: 20.4 µM | GI50 [21]: 402 nM | TGI [21]: 1490 nM | GI50 [22]: 660 nM | TGI [22]: > 39.8 µM | GI50 [23]: 4.51 µM | TGI [23]: 17.7 µM | GI50 [24]: 3.26 µM | TGI [24]: 26.4 µM | GI50 [25]: 3.28 µM | TGI [25]: 9.88 µM | GI50 [26]: 1.61 µM | TGI [26]: 3.31 µM | GI50 [27]: 5.87 µM | TGI [27]: 20.6 µM | GI50 [28]: 7.74 µM | TGI [28]: 17.4 µM | GI50 [29]: 4.65 µM | TGI [29]: > 100 µM | GI50 [30]: 6.39 µM | TGI [30]: 12.6 µM | GI50 [31]: > 52.5 µM | TGI [31]: > 93.6 µM | GI50 [32]: > 22700 nM | TGI [32]: > 62.2 µM | GI50 [57]: 1930 nM | TGI [57]: 4.12 µM | GI50 [33]: 1290 nM | TGI [33]: 2990 nM | GI50 [34]: 1870 nM | TGI [34]: 4.2 µM | GI50 [35]: 4.91 µM | TGI [35]: > 48.2 µM | TGI [36]: > 46.8 µM | GI50 [38]: > 20 µM | TGI [38]: > 100 µM | GI50 [39]: 7.54 µM | TGI [39]: 15.4 µM | GI50 [40]: 4.96 µM | TGI [40]: 13.9 µM | GI50 [41]: 2180 nM | TGI [41]: 5.55 µM | GI50 [58]: 1940 nM | TGI [58]: 9.84 µM | GI50 [42]: 1470 nM | TGI [42]: > 100 µM | GI50 [43]: 269 nM | TGI [43]: 1.76 µM | GI50 [44]: 8.13 µM | TGI [44]: 22.7 µM | GI50 [45]: 5.24 µM | TGI [45]: > 55.8 µM | GI50 [46]: 2100 nM | TGI [46]: 4.69 µM | GI50 [47]: 2.66 µM | TGI [47]: 7.71 µM | GI50 [48]: 4.38 µM | TGI [48]: 18.7 µM | GI50 [49]: 3380 nM | TGI [49]: > 36.5 µM | GI50 [50]: 2.36 µM | TGI [50]: 4.33 µM | GI50 [51]: 4.56 µM | TGI [51]: 15.1 µM | GI50 [52]: 1.97 µM | TGI [52]: 4.82 µM | GI50 [53]: 14.9 µM | TGI [53]: 42.3 µM | GI50 [54]: 2100 nM | TGI [54]: 4.53 µM | GI50 [55]: 2.47 µM | TGI [55]: 9.72 µM
